Here are results for 21 molecules from US20200270233A1, “DHFR INHIBITORS, COMPOSITIONS, AND METHODS RELATED THERETO” (Vyera Pharmaceuticais LLC, priority 2017, published 2020).

For one assay, the target named is T1, hDHFR (Homo sapiens, UniProt P00374).
T1 sequence (P00374 1-187): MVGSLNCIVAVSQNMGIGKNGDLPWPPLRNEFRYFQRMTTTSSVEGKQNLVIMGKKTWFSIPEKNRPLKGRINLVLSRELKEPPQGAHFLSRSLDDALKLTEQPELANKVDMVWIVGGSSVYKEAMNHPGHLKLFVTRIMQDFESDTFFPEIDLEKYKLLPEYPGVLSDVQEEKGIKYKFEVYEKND
In kind it is biochemical. Conditions: pIC50 = -log10 IC50, at least three replicates, read-out: hDHFR pIC50-DHFR primary assay (converted).

The target in the next assay is T2, T. gondii DHFR (tgDHFR) (Toxoplasma gondii, UniProt Q07422).
T2 sequence (Q07422 1-610): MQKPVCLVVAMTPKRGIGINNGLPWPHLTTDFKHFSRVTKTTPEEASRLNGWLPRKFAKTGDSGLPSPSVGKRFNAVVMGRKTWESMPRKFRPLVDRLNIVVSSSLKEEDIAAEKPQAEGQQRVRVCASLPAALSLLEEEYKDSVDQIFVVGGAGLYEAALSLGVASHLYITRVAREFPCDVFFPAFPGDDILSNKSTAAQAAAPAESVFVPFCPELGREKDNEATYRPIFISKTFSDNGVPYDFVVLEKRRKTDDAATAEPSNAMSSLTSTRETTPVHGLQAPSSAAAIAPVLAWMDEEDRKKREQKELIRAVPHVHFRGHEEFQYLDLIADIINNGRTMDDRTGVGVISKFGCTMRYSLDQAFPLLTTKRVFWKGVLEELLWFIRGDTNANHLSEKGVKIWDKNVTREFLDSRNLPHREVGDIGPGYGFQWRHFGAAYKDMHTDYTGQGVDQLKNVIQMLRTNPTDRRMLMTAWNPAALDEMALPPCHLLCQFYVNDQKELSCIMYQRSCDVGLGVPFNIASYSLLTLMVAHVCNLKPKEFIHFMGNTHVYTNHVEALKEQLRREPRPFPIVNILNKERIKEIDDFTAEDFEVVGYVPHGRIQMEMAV
Description: biochemical. Conditions: Table 16; for Average DHFR selectivity (h/tg): hDHFR IC50/tgDHFR IC50; for IC50: pIC50 = -log10 IC50, at least three replicates, read-out: tgDHFR pIC50-DHFR primary assay (converted).

Another assay has as its target T. cruzi DHFR (tcDHFR) (Trypanosoma cruzi, UniProt Q27793). Description: biochemical. Conditions: for Average DHFR selectivity (h/tc): hDHFR IC50/tcDHFR IC50.
[1] abbreviates: Table 17, pIC50 = -log10 IC50, at least three replicates, read-out: tcDHFR pIC50-DHFR primary assay (converted).

The structures appear in SMILES notation. Where two headings read alike, the source gives them in different places.

T. cruzi DHFR (tcDHFR), sequence (Q27793 whole entry): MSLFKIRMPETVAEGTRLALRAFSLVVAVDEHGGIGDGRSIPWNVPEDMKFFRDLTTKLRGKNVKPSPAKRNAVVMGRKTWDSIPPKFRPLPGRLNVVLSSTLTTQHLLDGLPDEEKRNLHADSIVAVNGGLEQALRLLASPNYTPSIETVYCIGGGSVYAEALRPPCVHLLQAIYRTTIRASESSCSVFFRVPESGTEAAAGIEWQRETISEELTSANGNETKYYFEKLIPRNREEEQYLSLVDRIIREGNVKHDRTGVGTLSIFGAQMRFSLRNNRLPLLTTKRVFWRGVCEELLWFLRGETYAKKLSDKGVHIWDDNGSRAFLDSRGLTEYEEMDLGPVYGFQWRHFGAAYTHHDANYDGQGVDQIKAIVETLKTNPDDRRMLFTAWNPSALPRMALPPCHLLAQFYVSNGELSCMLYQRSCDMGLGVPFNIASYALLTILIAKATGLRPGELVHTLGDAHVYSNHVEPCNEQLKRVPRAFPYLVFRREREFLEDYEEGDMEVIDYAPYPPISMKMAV

In the case of `COc1ncc(-c2cccc(N3CCC(c4cnc(N)nc4N)CC3)c2)cn1` [Compound 183, 5-(1-(3-(2-methoxypyrimidin-5-yl)phenyl)piperidin-4-yl)pyrimidine-2,4-diamine], the IC50 was 468 nM on hDHFR (Table 16), 316 nM on hDHFR (Table 17), 3.39 nM on T. gondii DHFR (tgDHFR) and 7.76 nM at T. cruzi DHFR (tcDHFR) (setting [1]). The “Average DHFR selectivity (h/tg)” value on T. gondii DHFR (tgDHFR) is recorded as 146.21. Besides, on T. cruzi DHFR (tcDHFR) (Table 17), the “Average DHFR selectivity (h/tc)” value was found to be 40.64.

Consider `Nc1ncc(N2CCN(c3ccc(C4CCOCC4)cc3)CC2)c(N)n1` [Compound 173], for which the IC50 at hDHFR (Table 16) is 1620 nM; at hDHFR (Table 17) it was 610 nM; at T. gondii DHFR (tgDHFR) it was 389 nM; on T. cruzi DHFR (tcDHFR) (setting [1]), 20.2 nM. The “Average DHFR selectivity (h/tg)” value on T. gondii DHFR (tgDHFR) amounted to 4.18. For the same molecule, the “Average DHFR selectivity (h/tc)” value on T. cruzi DHFR (tcDHFR) (Table 17) was 30.425.

With `Nc1ncc(N2CCN(c3ccccc3C3=CCOCC3)CC2)c(N)n1` [Compound 193, 5-(4-(2-(3,6-dihydro-2H-pyran-4-yl)phenyl)piperazin-1-yl)pyrimidine-2,4-diamine], the IC50 was 871 nM on hDHFR (Table 16), 871 nM at hDHFR (Table 17), 87.1 nM on T. gondii DHFR (tgDHFR) and 73.3 nM at T. cruzi DHFR (tcDHFR) (setting [1]). In addition, the “Average DHFR selectivity (h/tg)” value on T. gondii DHFR (tgDHFR) is given as 10.47. In addition, the “Average DHFR selectivity (h/tc)” value on T. cruzi DHFR (tcDHFR) (Table 17) is reported as 12.205.

In the case of `Nc1ncc(N2CCN(c3ccccc3C3CCOCC3)CC2)c(N)n1` [Compound 175], the IC50 on hDHFR (Table 16) was 13200 nM; on hDHFR (Table 17), 13200 nM; on T. gondii DHFR (tgDHFR), 3020 nM; at T. cruzi DHFR (tcDHFR) (setting [1]), 741 nM. Further, the “Average DHFR selectivity (h/tg)” value on T. gondii DHFR (tgDHFR) is reported as 4.39. Also, on T. cruzi DHFR (tcDHFR) (Table 17), the “Average DHFR selectivity (h/tc)” value is recorded as 17.745.

Consider `Nc1ncc(N2CCN(c3ccnc(C(F)(F)F)c3)CC2)c(N)n1` [Compound 139, 5-(4-(2-(trifluoromethyl)pyridin-4-yl)piperazin-1-yl)pyrimidine-2,4-diamine], for which the IC50 was 81.3 nM on hDHFR (Table 16), 47.9 nM on hDHFR (Table 17), 39.8 nM on T. gondii DHFR (tgDHFR) and 6.24 nM on T. cruzi DHFR (tcDHFR) (setting [1]). In addition, the “Average DHFR selectivity (h/tg)” value on T. gondii DHFR (tgDHFR) came to 2.03. Further, the “Average DHFR selectivity (h/tc)” value at T. cruzi DHFR (tcDHFR) (Table 17) stood at 8.02.

Regarding `COc1ncc(-c2ccccc2N2CCN(c3cnc(N)nc3N)CC2)cn1` [Compound 157], the IC50 was 5010 nM at hDHFR (Table 16), 5070 nM at hDHFR (Table 17), 871 nM at T. gondii DHFR (tgDHFR) and 184 nM at T. cruzi DHFR (tcDHFR) (setting [1]). Besides, the “Average DHFR selectivity (h/tg)” value at T. gondii DHFR (tgDHFR) is 5.86. In addition, the “Average DHFR selectivity (h/tc)” value at T. cruzi DHFR (tcDHFR) (Table 17) came out at 27.56.

Regarding `Nc1ncc(N2CCN(c3cccc(OC4CCOCC4)c3)CC2)c(N)n1` [Compound 151, 5-(4-(3-((tetrahydro-2H-pyran-4-yl)oxy)phenyl)piperazin-1-yl)pyrimidine-2,4-diamine], the IC50 on hDHFR (Table 16) was 851 nM; on hDHFR (Table 17), 851 nM; on T. gondii DHFR (tgDHFR), 17 nM; on T. cruzi DHFR (tcDHFR) (setting [1]), 27.2 nM. On T. gondii DHFR (tgDHFR), the “Average DHFR selectivity (h/tg)” value is 50.16. In addition, the “Average DHFR selectivity (h/tc)” value on T. cruzi DHFR (tcDHFR) (Table 17) is 31.54.

For the molecule `Nc1ncc(C2CCN(c3cnc(C(F)(F)F)nc3)CC2)c(N)n1` [Compound 187], the IC50 is 6170 nM on hDHFR (Table 16), 6170 nM at hDHFR (Table 17), 1740 nM at T. gondii DHFR (tgDHFR) and 66.1 nM on T. cruzi DHFR (tcDHFR) (setting [1]). On T. gondii DHFR (tgDHFR), the “Average DHFR selectivity (h/tg)” value is listed as 3.56. Further, at T. cruzi DHFR (tcDHFR) (Table 17), the “Average DHFR selectivity (h/tc)” value amounted to 95.3.

Take `N#Cc1ccc(N2CCN(c3cnc(N)nc3N)CC2)cn1` [Compound 189, 5-(4-(2,4-diaminopyrimidin-5-yl)piperazin-1-yl)picolinonitrile]: the IC50 was 309 nM on hDHFR (Table 16), 313 nM at hDHFR (Table 17), 224 nM on T. gondii DHFR (tgDHFR) and 8.04 nM at T. cruzi DHFR (tcDHFR) (setting [1]). The “Average DHFR selectivity (h/tg)” value at T. gondii DHFR (tgDHFR) worked out at 1.39. On T. cruzi DHFR (tcDHFR) (Table 17), the “Average DHFR selectivity (h/tc)” value came to 41.01.

In the case of `Nc1ncc(N2CCN(c3cccc(OC4CCOC4)c3)CC2)c(N)n1` (stereo not drawn) [Compound 152, 5-(4-(3-((tetrahydrofuran-3-yl)oxy)phenyl)piperazin-1-yl)pyrimidine-2,4-diamine], the IC50 on hDHFR (Table 16) was 1100 nM; on hDHFR (Table 17), 1110 nM; at T. gondii DHFR (tgDHFR), 23.4 nM; on T. cruzi DHFR (tcDHFR) (setting [1]), 25.4 nM. For the same molecule, the “Average DHFR selectivity (h/tg)” value at T. gondii DHFR (tgDHFR) stood at 47.37. Further, at T. cruzi DHFR (tcDHFR) (Table 17), the “Average DHFR selectivity (h/tc)” value was determined as 45.785.

Take `Nc1ncc(C2CCN(c3cccc(C4CCOCC4)c3)CC2)c(N)n1` [Compound 178]: the IC50 on hDHFR (Table 16) is 2880 nM; on hDHFR (Table 17), 2880 nM; at T. gondii DHFR (tgDHFR) it was 27.5 nM; on T. cruzi DHFR (tcDHFR) (setting [1]) it was 95.5 nM. Moreover, the “Average DHFR selectivity (h/tg)” value on T. gondii DHFR (tgDHFR) was found to be 104.18. In addition, the “Average DHFR selectivity (h/tc)” value on T. cruzi DHFR (tcDHFR) (Table 17) was determined as 30.635.

As for `Nc1ncc(N2CCN(c3ccnc(-c4ccccc4)c3)CC2)c(N)n1` [Compound 166], the IC50 is 107 nM at hDHFR (Table 16), 107 nM at hDHFR (Table 17), 13.8 nM at T. gondii DHFR (tgDHFR) and 7.76 nM on T. cruzi DHFR (tcDHFR) (setting [1]). The “Average DHFR selectivity (h/tg)” value at T. gondii DHFR (tgDHFR) is listed as 7.72. For the same molecule, the “Average DHFR selectivity (h/tc)” value at T. cruzi DHFR (tcDHFR) (Table 17) was 13.88.

Consider `Nc1ncc(N2CCN(c3ccc(Cl)nc3)CC2)c(N)n1` [Compound 141, 5-(4-(6-chloropyridin-3-yl)piperazin-1-yl)pyrimidine-2,4-diamine], for which the figures for the IC50 on hDHFR (Table 17) and on T. cruzi DHFR (tcDHFR) (setting [1]) were 417 nM and 6.31 nM, respectively. Further, the “Average DHFR selectivity (h/tc)” value at T. cruzi DHFR (tcDHFR) (Table 17) is listed as 67.2.

As for `Nc1ncc(N2CCN(c3cccc(-c4ccncn4)c3)CC2)c(N)n1` [Compound 102, 5-(4-(3-(pyrimidin-4-yl)phenyl)piperazin-1-yl)pyrimidine-2,4-diamine], the IC50 on hDHFR (Table 17) is 1660 nM; at T. cruzi DHFR (tcDHFR) it was 15.8 nM.

Regarding `Nc1ncc(N2CCN(c3cc(Cl)ccc3F)CC2)c(N)n1` [Compound 144, 5-(4-(5-chloro-2-fluorophenyl)piperazin-1-yl)pyrimidine-2,4-diamine], the figures for the IC50 on hDHFR (Table 17) and on T. cruzi DHFR (tcDHFR) (setting [1]) were 8610 nM and 170 nM, respectively. Also, the “Average DHFR selectivity (h/tc)” value at T. cruzi DHFR (tcDHFR) (Table 17) turned out to be 52.69.

Consider `Nc1ncc(N2CCN(c3ccc(C(F)(F)F)nc3)CC2)c(N)n1` [Compound 112], for which the IC50 was 2040 nM on hDHFR (Table 17) and 5.62 nM on T. cruzi DHFR (tcDHFR).

`Nc1ncc(N2CCN(c3ccnc(Cl)c3)CC2)c(N)n1` [Compound 147, 5-(4-(2-chloropyridin-4-yl)piperazin-1-yl)pyrimidine-2,4-diamine]: the IC50 on hDHFR (Table 17) was 180 nM; at T. cruzi DHFR (tcDHFR) (setting [1]), 7.41 nM. For the same molecule, the “Average DHFR selectivity (h/tc)” value on T. cruzi DHFR (tcDHFR) (Table 17) was found to be 24.92.

`Nc1ncc(N2CCN(c3ccc(Cl)cn3)CC2)c(N)n1` [Compound 149, 5-(4-(5-chloropyridin-2-yl)piperazin-1-yl)pyrimidine-2,4-diamine]: the IC50 on hDHFR (Table 17) was 1970 nM; on T. cruzi DHFR (tcDHFR) (setting [1]) it was 16.2 nM. The “Average DHFR selectivity (h/tc)” value on T. cruzi DHFR (tcDHFR) (Table 17) was determined as 122.69.

Consider `Nc1ncc(N2CCN(c3ccc(F)c(Cl)c3)CC2)c(N)n1` [Compound 143, 5-(4-(3-chloro-4-fluorophenyl)piperazin-1-yl)pyrimidine-2,4-diamine], for which the IC50 on hDHFR (Table 17) was 684 nM; at T. cruzi DHFR (tcDHFR) (setting [1]) it was 16.6 nM. The “Average DHFR selectivity (h/tc)” value at T. cruzi DHFR (tcDHFR) (Table 17) turned out to be 41.735.

In the case of `Nc1ncc(N2CCN(c3ccc(C(F)(F)F)cn3)CC2)c(N)n1` [Compound 140, 5-(4-(5-(trifluoromethyl)pyridin-2-yl)piperazin-1-yl)pyrimidine-2,4-diamine], the IC50 at hDHFR (Table 17) was 617 nM; on T. cruzi DHFR (tcDHFR) (setting [1]) it was 7 nM. Further, on T. cruzi DHFR (tcDHFR) (Table 17), the “Average DHFR selectivity (h/tc)” value was determined as 90.29.

`COc1ccc(N2CCN(c3cnc(N)nc3N)CC2)cc1` [Compound 114, 5-(4-(4-methoxyphenyl)piperazin-1-yl)pyrimidine-2,4-diamine]: the IC50 was 813 nM at hDHFR (Table 17) and 5.62 nM against T. cruzi DHFR (tcDHFR).
